# Experiments:
# [1] = Hydration study in methanol/water aw 0.1, 0.5 and 0.9; type: physicochemical
# Text: Hydration studies of ethanolamine salt.
# [2] = Salt disproportionation study (slurry in water, XRPD of solids, pH of mother liquor); type: physicochemical
# Procedure: The pH of the filtered mother liquor was 9.77.
# Salt disproportionation studies of ethanolamine salt. […] The pH of the filtered mother liquor was 8.65.
# Method: 40 mg of sodium salt of HBI-3808 having a XRPD of Pattern 2, was weighed into a 2 mL push cap vial and a stirrer bar added. 0.2 mL of water was added to the vial and the experiment was stirred for ca. 24 h at 25° C. After 24 h the slurry was filtered by centrifuge filtration and the recovered solids were analyzed by XRPD. The pH of the filtered mother liquor was measured.
# [3] = Stability study at 25° C./60% RH, 40° C./75% RH and 60° C. (XRPD, HPLC purity, impurity tracking); conditions: for XRPD: * = crystalline salt; for HPLC: based on free acid
# Text: Stability of HBI-3808 Sodium Salt Pattern 2 was studied over 13 weeks.
# Table 2F presents impurity tracking results from a 13-week stability study of HBI-3808 sodium salt of Pattern 2. […]
# [4] = 25° C./60% RH (open vial), 13 Weeks
# [5] = 25° C./60% RH (open vial), 1 Week
# [6] = 25° C./60% RH (open vial), 2 Weeks
# [7] = 25° C./60% RH (open vial), 4 Weeks
# [8] = 25° C./60% RH (open vial), 8 Weeks
# [9] = 40° C./75% RH (open vial), 13 Weeks
# [10] = 40° C./75% RH (open vial), 1 Week
# [11] = 40° C./75% RH (open vial), 2 Weeks
# [12] = 40° C./75% RH (open vial), 4 Weeks
# [13] = 40° C./75% RH (open vial), 8 Weeks
structure (smiles),measurement,setting,value
"C[C@@H]1CC[C@]2(C(=O)O)CC[C@]3(C)C(=CC[C@@H]4[C@@]5(C)C[C@@H](O)[C@H](O)[C@@](C)(CO)[C@@H]5CC[C@]43C)[C@@H]2[C@]1(C)O.NCCO [ethanolamine salt of HBI-3808, ETHANOLAMINE SALT OF 23-HYDROXYTORMENTIC ACID]",XRPD of solids recovered at the end of the experiment,[1],consistent with ethanolamine salt
same,pH of the filtered mother liquor,[2],8.65
same,XRPD of recovered solids,[2]; ca. 24 h at 25° C.,no salt disproportionation had occurred
same,HPLC/ % area,[3]; [4],97.4 % area
same,XRPD,[3]; [5],1*
same,HPLC,[3]; [5],97.3 % area
same,XRPD,[3]; [6],1*
same,HPLC,[3]; [6],97.3 % area
same,XRPD,[3]; [7],1*
same,HPLC,[3]; [7],97.5 % area
same,XRPD,[3]; [8],1*
same,HPLC,[3]; [8],97.0 % area
same,XRPD,[3]; [4],1*
same,HPLC,[3]; [4],97.3 % area
same,RRT 0.801 impurity,"[3]; 25° C./60% RH, 1 week",0.10 % area
same,RRT 0.970 impurity,"[3]; 25° C./60% RH, 1 week",0.10 % area
same,RRT 1.000 (HBI-3808),"[3]; 25° C./60% RH, 1 week",97.31 % area
same,RRT 1.025 (Isomer of HBI-3808),"[3]; 25° C./60% RH, 1 week",2.48 % area
same,Total Impurities,"[3]; 25° C./60% RH, 1 week",2.69 % area
same,RRT 0.970 impurity,"[3]; 25° C./60% RH, 2 weeks",0.12 % area
same,RRT 1.000 (HBI-3808),"[3]; 25° C./60% RH, 2 weeks",97.29 % area
same,RRT 1.025 (Isomer of HBI-3808),"[3]; 25° C./60% RH, 2 weeks",2.39 % area
same,RRT 1.935 impurity,"[3]; 25° C./60% RH, 2 weeks",0.20 % area
same,Total Impurities,"[3]; 25° C./60% RH, 2 weeks",2.71 % area
same,RRT 0.970 impurity,"[3]; 25° C./60% RH, 4 weeks",0.11 % area
same,RRT 1.000 (HBI-3808),"[3]; 25° C./60% RH, 4 weeks",97.47 % area
same,RRT 1.025 (Isomer of HBI-3808),"[3]; 25° C./60% RH, 4 weeks",2.41 % area
same,Total Impurities,"[3]; 25° C./60% RH, 4 weeks",2.53 % area
same,RRT 0.970 impurity,"[3]; 25° C./60% RH, 8 weeks",0.10 % area
same,RRT 1.000 (HBI-3808),"[3]; 25° C./60% RH, 8 weeks",96.99 % area
same,RRT 1.025 (Isomer of HBI-3808),"[3]; 25° C./60% RH, 8 weeks",2.51 % area
same,RRT 1.767 impurity,"[3]; 25° C./60% RH, 8 weeks",0.29 % area
same,Total Impurities,"[3]; 25° C./60% RH, 8 weeks",3.01 % area
same,RRT 0.801 impurity,"[3]; 25° C./60% RH, 13 weeks",0.12 % area
same,RRT 1.000 (HBI-3808),"[3]; 25° C./60% RH, 13 weeks",97.33 % area
same,RRT 1.025 (Isomer of HBI-3808),"[3]; 25° C./60% RH, 13 weeks",2.37 % area
same,RRT 1.935 impurity,"[3]; 25° C./60% RH, 13 weeks",0.19 % area
same,Total Impurities,"[3]; 25° C./60% RH, 13 weeks",2.67 % area
same,RRT 1.000 (HBI-3808),"[3]; 25° C./60% RH, T = 0",97.82 % area
same,RRT 1.025 (Isomer of HBI-3808),"[3]; 25° C./60% RH, T = 0",2.18 % area
same,Total Impurities,"[3]; 25° C./60% RH, T = 0",2.18 % area
same,HPLC/ % area,[3]; [9],97.4 % area
same,XRPD,[3]; [10],1*
same,HPLC,[3]; [10],97.3 % area
same,XRPD,[3]; [11],1*
same,HPLC,[3]; [11],97.3 % area
same,XRPD,[3]; [12],1*
same,HPLC,[3]; [12],97.5 % area
same,XRPD,[3]; [13],1*
same,HPLC,[3]; [13],96.9 % area
same,XRPD,[3]; [9],1*
same,HPLC,[3]; [9],97.4 % area
same,RRT 0.801 impurity,"[3]; 40° C./75% RH, 1 week",0.10 % area
same,RRT 0.970 impurity,"[3]; 40° C./75% RH, 1 week",0.14 % area
same,RRT 1.000 (HBI-3808),"[3]; 40° C./75% RH, 1 week",97.28 % area
same,RRT 1.025 (Isomer of HBI-3808),"[3]; 40° C./75% RH, 1 week",2.48 % area
same,Total Impurities,"[3]; 40° C./75% RH, 1 week",2.72 % area
same,RRT 0.970 impurity,"[3]; 40° C./75% RH, 2 weeks",0.12 % area
same,RRT 1.000 (HBI-3808),"[3]; 40° C./75% RH, 2 weeks",97.26 % area
same,RRT 1.025 (Isomer of HBI-3808),"[3]; 40° C./75% RH, 2 weeks",2.40 % area
same,RRT 1.935 impurity,"[3]; 40° C./75% RH, 2 weeks",0.22 % area
same,Total Impurities,"[3]; 40° C./75% RH, 2 weeks",2.74 % area
same,RRT 0.970 impurity,"[3]; 40° C./75% RH, 4 weeks",0.11 % area
same,RRT 1.025 (Isomer of HBI-3808),"[3]; 40° C./75% RH, 4 weeks",2.41 % area
same,Total Impurities,"[3]; 40° C./75% RH, 4 weeks",2.52 % area
same,RRT 0.970 impurity,"[3]; 40° C./75% RH, 8 weeks",0.21 % area
same,RRT 1.000 (HBI-3808),"[3]; 40° C./75% RH, 8 weeks",96.88 % area
same,RRT 1.025 (Isomer of HBI-3808),"[3]; 40° C./75% RH, 8 weeks",2.51 % area
same,RRT 1.767 impurity,"[3]; 40° C./75% RH, 8 weeks",0.40 % area

# Reference: patent US20250326785A1, “SODIUM SALT AND ETHANOLAMINE SALT OF 23-HYDROXYTORMENTIC ACID” (HUYABIO International, LLC, priority 2024, published 2025)
